Calls of active or inactive are those of the source.
What was measured:
Caspase-6 = target: T1, Caspase-6 (Homo sapiens, UniProt P55212); test: human caspase-6 inhibitors, dose response, biochemical, VEID-R110 fluorescence, cherry-pick (AID 720632)
T1 sequence (P55212 whole entry): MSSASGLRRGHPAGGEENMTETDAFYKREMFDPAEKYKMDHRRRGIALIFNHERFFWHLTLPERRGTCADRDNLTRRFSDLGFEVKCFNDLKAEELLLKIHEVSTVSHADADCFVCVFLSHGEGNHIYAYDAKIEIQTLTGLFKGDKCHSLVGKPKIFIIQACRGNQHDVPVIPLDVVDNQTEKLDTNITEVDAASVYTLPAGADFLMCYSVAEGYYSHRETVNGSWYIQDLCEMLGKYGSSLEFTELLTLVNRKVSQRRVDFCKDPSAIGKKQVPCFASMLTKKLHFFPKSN

[1] = target: T2, Short transient receptor potential channel 4 (Mus musculus, UniProt Q9QUQ5); test: mouse TRPC4 channel inhibitors, dose response, cell-based, HEK293 TRPC4/mu-opioid, Fluo-4 calcium (AID 434942); assay type: functional;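 also: potency of inhibitors blocking the TRPC4 calcium response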
T2 sequence (Q9QUQ5 whole entry): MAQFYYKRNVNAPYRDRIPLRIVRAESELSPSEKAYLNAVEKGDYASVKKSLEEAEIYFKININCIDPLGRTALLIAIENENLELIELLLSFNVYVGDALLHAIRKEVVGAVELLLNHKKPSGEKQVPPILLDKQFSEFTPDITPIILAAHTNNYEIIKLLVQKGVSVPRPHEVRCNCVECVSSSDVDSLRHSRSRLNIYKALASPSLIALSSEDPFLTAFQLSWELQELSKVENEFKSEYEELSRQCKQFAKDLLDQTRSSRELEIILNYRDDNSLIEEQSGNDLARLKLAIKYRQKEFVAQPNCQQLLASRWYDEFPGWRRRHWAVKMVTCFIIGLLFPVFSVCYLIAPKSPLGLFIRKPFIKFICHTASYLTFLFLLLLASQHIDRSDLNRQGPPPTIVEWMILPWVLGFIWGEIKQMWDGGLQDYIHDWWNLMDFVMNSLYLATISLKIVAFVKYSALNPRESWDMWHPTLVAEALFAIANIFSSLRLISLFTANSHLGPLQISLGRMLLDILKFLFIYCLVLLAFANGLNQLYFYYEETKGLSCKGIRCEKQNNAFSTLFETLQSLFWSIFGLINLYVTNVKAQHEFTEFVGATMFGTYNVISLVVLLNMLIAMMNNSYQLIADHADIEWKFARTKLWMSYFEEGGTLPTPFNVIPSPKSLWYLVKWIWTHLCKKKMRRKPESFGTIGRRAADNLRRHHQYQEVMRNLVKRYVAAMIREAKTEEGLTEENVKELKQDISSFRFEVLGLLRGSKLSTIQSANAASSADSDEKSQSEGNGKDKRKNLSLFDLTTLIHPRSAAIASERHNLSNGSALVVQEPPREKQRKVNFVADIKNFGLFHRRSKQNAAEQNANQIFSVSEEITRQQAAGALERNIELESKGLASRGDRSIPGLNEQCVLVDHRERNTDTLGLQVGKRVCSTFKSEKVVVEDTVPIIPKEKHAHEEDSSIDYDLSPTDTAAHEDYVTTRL

INS1 = test: beta cell apoptosis inhibitors, cytokine rescue, dose response, luminescence, retest (AID 449756); assay type: functional, cell-based; settings: Rattus norvegicus;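 also: cell death triggered by IL-1 beta plus TNF-alpha plus IFN-gamma mixture; protective hits raise ATP signal compared with cytokine alone wells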
[2] = THP-1 cell cytotoxicity, dose response, cytotoxicity control for Vif-APOBEC3G degradation inhibitor project, THP-1 cells (AID 1117359); assay type: functional; settings: Human immunodeficiency virus 1, THP-1
[3] = target: T3, RNA-binding protein pos-1 (Caenorhabditis elegans, UniProt G5EF15); test: inhibitors of POS-1/mex-3 RNA binding, dose response, biochemical, fluorescence polarization (AID 1964);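 also: purified POS-1 fused to maltose binding protein made in E. coli; potency of compounds blocking POS-1 binding to fluorescent RNA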
T3 sequence (G5EF15 whole entry): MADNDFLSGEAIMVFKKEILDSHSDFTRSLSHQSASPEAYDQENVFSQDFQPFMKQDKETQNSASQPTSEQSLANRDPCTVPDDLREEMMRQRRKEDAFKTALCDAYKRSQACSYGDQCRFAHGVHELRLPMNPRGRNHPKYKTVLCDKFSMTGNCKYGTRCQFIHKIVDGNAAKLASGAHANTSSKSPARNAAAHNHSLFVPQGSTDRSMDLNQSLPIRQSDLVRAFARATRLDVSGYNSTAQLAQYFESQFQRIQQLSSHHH

Protein Tat = target: T4, Protein Tat (Human immunodeficiency virus type 1 group M subtype B (isolate HXB2)(HIV-1), UniProt P04608); assay type: functional;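 also: tat binding to TAR RNA read out by fluorescence polarization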
T4 sequence (P04608 whole entry): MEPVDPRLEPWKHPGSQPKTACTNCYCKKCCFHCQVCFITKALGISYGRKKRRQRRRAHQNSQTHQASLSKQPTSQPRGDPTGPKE

[4] = target: T5, Zinc finger protein mex-5 (Caenorhabditis elegans, UniProt Q9XUB2); test: MEX-5/TCR-2 RNA interaction inhibitors, dose response, biochemical, C. elegans, fluorescence polarization (AID 1960)
T5 sequence (Q9XUB2 whole entry): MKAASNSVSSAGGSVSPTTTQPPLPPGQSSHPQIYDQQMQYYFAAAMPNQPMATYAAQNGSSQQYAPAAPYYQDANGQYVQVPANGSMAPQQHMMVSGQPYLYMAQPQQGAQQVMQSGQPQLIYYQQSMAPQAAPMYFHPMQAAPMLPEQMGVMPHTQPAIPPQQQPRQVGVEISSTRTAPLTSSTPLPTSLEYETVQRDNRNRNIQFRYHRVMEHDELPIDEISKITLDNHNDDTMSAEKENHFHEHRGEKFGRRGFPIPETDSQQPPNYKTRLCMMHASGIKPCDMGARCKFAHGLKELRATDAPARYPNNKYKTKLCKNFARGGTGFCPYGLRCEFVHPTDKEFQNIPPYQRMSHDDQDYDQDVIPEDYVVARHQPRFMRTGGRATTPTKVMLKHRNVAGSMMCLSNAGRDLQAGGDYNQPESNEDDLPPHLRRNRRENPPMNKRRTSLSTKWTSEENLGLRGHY

[5] = target: Disintegrin and metalloproteinase domain-containing protein 17 (Homo sapiens, UniProt P78536); test: exosite inhibitors of ADAM17, dose response, biochemical (AID 743260)
H9c2 = test: cells; assay type: functional, cell-based; settings: Rattus norvegicus, H9c2, Myocardium;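 also: confirmatory concentration-response retest of ultra-high-throughput screening hits for modulation of myocardial damage; cell death induced by hydrogen peroxide oxidative stress; compound pretreatment for 60 min then peroxide exposure for 2 h; potency is for protecting the cells against peroxide damage rather than for killing them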
[6] = inhibitors of intracellular T. cruzi replication, confirmation, NIH3T3 host cells, beta-gal luminescence (AID 2044); assay type: functional, cell-based;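 also: intracellular parasites grown in NIH/3T3 mouse fibroblasts as host cells; luminescent beta-galactosidase reporter signal from transgenic T. cruzi replicating inside host cells; inhibitors lower the luminescence signal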
[7] = cytotoxicity toward NIH3T3 fibroblasts, dose response, counter-screen, cell-based, ATP luminescence, mouse fibroblasts (AID 2010); assay type: functional;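 also: cells exposed to compound for about 90 hours before reading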
[8] = A cytotoxicity screen of small molecule inhibitors of the PhoP region in Salmonella typhi identified in the primary screen. [Related pubchem assays: 1850, 1864, 1985 ]; assay type: functional
cells [9] = assay type: functional
cells [10] = test: cells
[11] = target: T6, Microphthalmia-associated transcription factor (Homo sapiens, UniProt O75030); test: TRPM1 promoter luciferase signal decrease, dose response, MITF inhibitor project, cell-based, SK-MEL-5, cherry-picked, set 3 (AID 493073); assay type: functional
T6 sequence (O75030 whole entry): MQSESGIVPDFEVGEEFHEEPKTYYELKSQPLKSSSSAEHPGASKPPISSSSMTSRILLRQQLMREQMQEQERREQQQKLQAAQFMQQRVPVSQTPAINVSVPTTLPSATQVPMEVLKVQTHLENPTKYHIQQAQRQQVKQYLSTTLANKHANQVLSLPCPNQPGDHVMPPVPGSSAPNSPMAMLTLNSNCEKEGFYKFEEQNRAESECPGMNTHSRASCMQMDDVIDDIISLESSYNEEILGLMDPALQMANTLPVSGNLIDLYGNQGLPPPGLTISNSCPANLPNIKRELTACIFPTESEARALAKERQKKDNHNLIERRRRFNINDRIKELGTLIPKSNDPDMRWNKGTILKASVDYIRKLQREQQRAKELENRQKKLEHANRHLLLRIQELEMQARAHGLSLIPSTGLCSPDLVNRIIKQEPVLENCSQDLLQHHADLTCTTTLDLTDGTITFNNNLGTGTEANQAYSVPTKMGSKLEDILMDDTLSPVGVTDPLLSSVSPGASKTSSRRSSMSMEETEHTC

Genome polyprotein = Genome polyprotein (dengue virus type 2, UniProt P29990); test: Dengue-2 NS5 methyltransferase inhibitors, primary screen, biochemical, confirmation dose response (AID 588689); assay type: functional
[12] = target: FAD-linked sulfhydryl oxidase ALR (Homo sapiens, UniProt P55789); test: inhibitors of human ALR sulfhydryl oxidase, dose response, biochemical, H2O2 detection, luminescence, cherry-pick (AID 493248)
[13] = cytotoxicity in KRAS-transformed pancreatic duct cells, primary screen, cell-based, fluorescence, HTS (AID 431); assay type: functional; settings: Homo sapiens;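 also: cell line used: HPDE-C7K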
[14] = cytotoxicity in HPDE-C7 cells, cell-based, fluorescence, HTS (AID 430); assay type: functional; settings: Homo sapiens
[15] = target: T7, Corticotropin-releasing factor receptor 2/Corticotropin-releasing factor-binding protein (Homo sapiens, UniProt P24387+Q13324); test: Dose Response confirmation of uHTS hits for small molecule antagonists of the CRF-binding protein and CRF-R2 receptor complex.; assay type: functional; settings: read-out: IC50_Mean
T7 sequence (Q13324 whole entry): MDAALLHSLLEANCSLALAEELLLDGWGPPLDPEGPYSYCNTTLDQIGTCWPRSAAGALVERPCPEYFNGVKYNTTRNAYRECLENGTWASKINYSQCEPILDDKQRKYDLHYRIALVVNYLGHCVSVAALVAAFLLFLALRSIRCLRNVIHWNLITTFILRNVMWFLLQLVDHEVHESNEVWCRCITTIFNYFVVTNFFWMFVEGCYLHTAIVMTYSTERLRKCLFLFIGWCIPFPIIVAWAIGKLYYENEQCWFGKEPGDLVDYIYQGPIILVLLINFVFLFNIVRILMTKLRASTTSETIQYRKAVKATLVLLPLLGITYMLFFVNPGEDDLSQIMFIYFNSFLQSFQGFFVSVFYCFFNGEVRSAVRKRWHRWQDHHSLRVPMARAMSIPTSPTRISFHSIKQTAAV
T7 sequence (P24387 whole entry): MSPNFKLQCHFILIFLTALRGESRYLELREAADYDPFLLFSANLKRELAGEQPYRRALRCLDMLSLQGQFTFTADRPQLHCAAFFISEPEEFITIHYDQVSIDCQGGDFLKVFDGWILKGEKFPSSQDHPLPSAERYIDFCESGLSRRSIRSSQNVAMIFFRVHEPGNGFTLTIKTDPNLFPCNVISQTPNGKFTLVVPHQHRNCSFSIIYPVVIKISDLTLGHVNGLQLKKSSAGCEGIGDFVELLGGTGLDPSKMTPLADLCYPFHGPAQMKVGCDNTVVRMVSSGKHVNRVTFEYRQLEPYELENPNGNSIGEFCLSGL

[16] = target: T7, Corticotropin-releasing factor receptor 2/Corticotropin-releasing factor-binding protein; test: activators of CRF receptor 2 with binding protein – uHTS hits, confirmation (AID 602473); assay type: functional; settings: read-out: EC50_Mean

Chain of FAD-linked sulfhydryl oxidase ALR (P55789 whole entry): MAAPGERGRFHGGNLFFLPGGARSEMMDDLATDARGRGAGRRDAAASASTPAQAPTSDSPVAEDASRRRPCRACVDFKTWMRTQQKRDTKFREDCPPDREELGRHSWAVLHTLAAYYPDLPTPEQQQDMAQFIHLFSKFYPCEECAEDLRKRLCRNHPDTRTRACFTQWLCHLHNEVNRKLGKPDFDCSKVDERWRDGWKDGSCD
Chain of Genome polyprotein (P29990 2492-3391 limits assumed): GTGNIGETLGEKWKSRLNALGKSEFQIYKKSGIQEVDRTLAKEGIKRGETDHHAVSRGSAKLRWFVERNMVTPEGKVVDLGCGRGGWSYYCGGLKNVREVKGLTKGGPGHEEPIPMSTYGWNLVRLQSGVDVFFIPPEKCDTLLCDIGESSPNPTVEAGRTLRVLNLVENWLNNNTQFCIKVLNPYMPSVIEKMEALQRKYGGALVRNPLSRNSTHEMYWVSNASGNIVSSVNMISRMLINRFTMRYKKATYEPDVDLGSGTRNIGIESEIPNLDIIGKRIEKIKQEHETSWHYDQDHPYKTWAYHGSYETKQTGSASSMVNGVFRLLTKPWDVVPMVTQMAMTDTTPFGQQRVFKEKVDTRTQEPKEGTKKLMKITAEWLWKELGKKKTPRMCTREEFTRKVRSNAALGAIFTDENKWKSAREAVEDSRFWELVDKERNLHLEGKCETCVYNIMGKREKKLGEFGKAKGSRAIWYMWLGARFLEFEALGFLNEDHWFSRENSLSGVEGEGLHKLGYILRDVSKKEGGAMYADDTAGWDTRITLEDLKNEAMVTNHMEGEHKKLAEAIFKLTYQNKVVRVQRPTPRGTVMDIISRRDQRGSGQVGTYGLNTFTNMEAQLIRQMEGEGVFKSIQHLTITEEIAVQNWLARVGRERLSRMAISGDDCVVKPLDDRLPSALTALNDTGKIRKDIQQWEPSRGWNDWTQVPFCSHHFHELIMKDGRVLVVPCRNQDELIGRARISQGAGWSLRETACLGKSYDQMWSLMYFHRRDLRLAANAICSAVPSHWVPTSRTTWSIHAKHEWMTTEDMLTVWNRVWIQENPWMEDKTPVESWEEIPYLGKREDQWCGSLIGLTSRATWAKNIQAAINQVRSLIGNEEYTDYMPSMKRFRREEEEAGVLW
Chain of Disintegrin and metalloproteinase domain-containing protein 17 (P78536 whole entry, the tested form may be a part): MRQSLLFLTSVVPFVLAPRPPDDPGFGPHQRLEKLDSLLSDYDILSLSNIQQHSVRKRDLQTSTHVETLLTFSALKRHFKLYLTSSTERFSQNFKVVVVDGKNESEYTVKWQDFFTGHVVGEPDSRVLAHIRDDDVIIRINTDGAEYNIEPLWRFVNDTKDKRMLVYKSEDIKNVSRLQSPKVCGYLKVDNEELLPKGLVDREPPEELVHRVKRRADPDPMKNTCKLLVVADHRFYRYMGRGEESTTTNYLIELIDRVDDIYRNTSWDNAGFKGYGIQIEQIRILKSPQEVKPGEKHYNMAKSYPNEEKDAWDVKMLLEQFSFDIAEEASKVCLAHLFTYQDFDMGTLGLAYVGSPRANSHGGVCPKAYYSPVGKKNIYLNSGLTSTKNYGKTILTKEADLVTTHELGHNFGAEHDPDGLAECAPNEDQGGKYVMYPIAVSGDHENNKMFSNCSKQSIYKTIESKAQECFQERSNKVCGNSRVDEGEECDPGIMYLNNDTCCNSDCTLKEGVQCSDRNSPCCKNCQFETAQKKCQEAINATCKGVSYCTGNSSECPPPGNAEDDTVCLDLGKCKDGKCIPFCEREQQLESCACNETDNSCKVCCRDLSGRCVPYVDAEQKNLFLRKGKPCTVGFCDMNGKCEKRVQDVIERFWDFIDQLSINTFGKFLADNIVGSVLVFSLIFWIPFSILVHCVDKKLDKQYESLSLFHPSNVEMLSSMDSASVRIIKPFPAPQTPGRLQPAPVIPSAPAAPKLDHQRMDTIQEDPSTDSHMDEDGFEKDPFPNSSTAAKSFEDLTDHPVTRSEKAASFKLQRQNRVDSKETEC

Structure (SMILES): O=C(NN1C(=O)C2CC=C(Cl)CC2C1=O)c1ccncc1 (stereo not given)
- AC50 (Caspase-6): 16.5 µM (active)

Structure (SMILES): Cc1ccccc1OCCn1c(C)nc2ccccc21
- EC50 [1]: 1.19 µM (active)
- AC50 (INS1): 8.1 µM (active)

Structure (SMILES): Cc1cc(/C=N/NC(=O)C(O)(c2ccccc2)c2ccccc2)c(C)n1-c1cccc(C(=O)O)c1
- AC50 (Caspase-6): 1.78 µM (active)

Structure (SMILES): Cc1ccc(S(=O)(=O)NCCC(=O)N2CCN(C/C=C/c3ccccc3)CC2)cc1
- CC50 [2]: > 40 µM (active)

Structure (SMILES): Cc1cccc(N2C(=O)/C(=C/c3ccc(CN(CCC#N)S(C)(=O)=O)o3)C(=O)NC2=S)c1
- EC50 [3]: 67 µM (active)
- IC50 (Protein Tat): > 100 µM (active)
- EC50 [4]: 41.2 µM (active)

Structure (SMILES): O=C1OCCN1C(=O)[C@H]1[C@H](c2ccc([N+](=O)[O-])cc2)C(c2ccccc2)=NN1c1ccc(Br)cc1
- IC50 [5]: > 69.5 µM (inactive)
- IC50 (H9c2): 15.2 µM (active)

Structure (SMILES): c1ccc(CN2CCN(Cc3c[nH]c4ccccc34)CC2)cc1
- EC50 [6]: 0.277 µM (active)
- EC50 [1]: 5.96 µM (active)
- AC50 (INS1): 8.01 µM (active)
- EC50 [7]: > 30 µM (not active)

Structure (SMILES): CCCC1(c2ccccc2)NC(=O)N(CC(=O)Nc2ccccc2C(F)(F)F)C1=O (stereo not given)
- EC50 [8]: > 50 µM (active)

Structure (SMILES): Cc1ccsc1/C=N/Nc1ccc(C(=O)O)cc1
- EC50 [8]: > 50 µM (active)

Structure (SMILES): COc1ccccc1N1CCN(CC(O)COCCOc2ccc(Br)cc2)CC1 (stereo not given)
- CC50 [2]: 29.9 µM (active)

Structure (SMILES): O=C(Cc1ccccc1)N1CCCCN2[C@H](CO)[C@@H](c3ccc(C#Cc4ccccc4)cc3)[C@H]2C1
- AC50 (Caspase-6): 47.3 µM (active)

Structure (SMILES): Cn1cccc1/C=C1/C(=O)NC(=O)N(Cc2ccc(F)cc2)C1=O
- CC50 [2]: > 40 µM (active)

Structure (SMILES): Cc1ccc(OCC(=O)N/N=C/c2ccc([N+](=O)[O-])o2)cc1
- EC50 [6]: < 0.1 µM (active)
- IC50 (cells [9]): 3.01 µM (active)
- EC50 [8]: > 50 µM (active)
- EC50 (cells [10]): 0.078 µM (active)
- AC50 [11]: 8.9 µM (active)
- EC50 [7]: > 60 µM (not active)

Structure (SMILES): CCc1ccccc1N=C(S)N(Cc1cccc(C)c1)c1cccnc1
- EC50 [8]: > 50 µM (active)

Structure (SMILES): COc1cccc(/C=C2\SC(=S)N(NS(=O)(=O)c3ccc(C)cc3)C2=O)c1OC
- IC50 (Genome polyprotein): 36.2 µM (active)
- AC50 [12]: 9.05 µM (active)
- EC50 [1]: 8.41 µM (active)

Structure (SMILES): CC(OC(=O)CC1CCCC1)C(=O)Nc1ccc(Cl)cn1 (stereo not given)
- CC50 [2]: > 40 µM (active)

Structure (SMILES): Cc1ccc(-c2nnc(N3CCN(c4ccccn4)CC3)c3ccccc23)cc1
- EC50 [13]: 16.7 µM (active)
- EC50 [14]: 16.5 µM (active)

Structure (SMILES): CC(C)CC(NC(=O)/C(=C/c1ccco1)NC(=O)c1ccc(Br)o1)C(=O)O (stereo not given)
- IC50 [15]: > 47.1 µM (inactive)
- EC50 [16]: > 53 µM (inactive)
- IC50 (Protein Tat): > 100 µM (active)

— ChEMBL document CHEMBL1201862, “PubChem BioAssay data set” (2004)
